In ChEMBL document CHEMBL3352071, “Benzimidazoles: novel mycobacterial gyrase inhibitors from scaffold morphing” (ACS Med Chem Lett, 2014):
Converted amounts (≈) assume the structure as drawn.

Key:
Format in all cases: functional
[1] = system: Mycobacterium tuberculosis; experiment: Antimicrobial activity against 2-oxo-1-(2-(4-((3-oxo-3,4-dihydro-2H-pyrido[3,2-b][1,4]oxazin-6-yl)methylamino)piperidin-1-yl)ethyl)-1,2-dihydroquinoline-7-carbonitrile resistant Mycobacterium tuberculosis H37Rv ATCC 27294 containing DNA gyrase A74V mutant
[2] = system: Mycobacterium tuberculosis; experiment: Antimicrobial activity against moxicillin resistant Mycobacterium tuberculosis H37Rv ATCC 27294 containing DNA gyrase G88N mutant
[3] = system: Mycobacterium tuberculosis; experiment: Antimicrobial activity against 5-(((3S,4R)-3-fluoro-1-(2-(7-methoxy-2-oxo-1,5-naphthyridin-1(2H)-yl)ethyl)piperidin-4-ylamino)methyl)-2-methylnicotinonitrile resistant Mycobacterium tuberculosis H37Rv ATCC 27294 containing DNA gyrase D89N mutant

Q: How did the MIC [1] turn out when COc1cnc2ccc(=O)n(CCN3CCC(c4nc5cc(C(F)(F)F)ccc5[nH]4)CC3)c2c1 was run?
A: Its MIC is 50 µM (≈ 23.6 µg/mL).

Q: What about the MIC [2] of the same molecule?
A: The MIC was 0.78 µM (≈ 0.368 µg/mL).

Q: And the MIC [3]?
A: The MIC was 25 µM (≈ 11.8 µg/mL).

Q: NNC(=O)c1ccncc1 [ISONIAZID] was tested. Which MIC [1] did it give?
A: The MIC was 0.06 µM (≈ 0.00823 µg/mL).

Q: And the MIC [2]?
A: Its MIC is 0.06 µM (≈ 0.00823 µg/mL).

Q: And the MIC [3]?
A: The MIC was 0.03 µM (≈ 0.00411 µg/mL).

Q: How did the MIC [1] turn out when O=c1ccc2ncc(F)cc2n1CCN1CCC(NCc2ccc(C(F)(F)F)nc2)CC1 was run?
A: The MIC was 2 µM (≈ 0.899 µg/mL).

Q: What about the MIC [2] of the same molecule?
A: Its MIC is under 0.19 µM.

Q: And the MIC [3]?
A: The MIC was over 100 µM.

Q: What does the source list for O=C(O)c1cn(C2CC2)c2cc(N3CCNCC3)c(F)cc2c1=O [CIPROFLOXACIN]?
A: MIC [1]: 0.5 µM (≈ 0.166 µg/mL); MIC [2]: 8 µM (≈ 2.65 µg/mL); MIC [3]: 16 µM (≈ 5.3 µg/mL)

Q: COc1cnc2ccc(=O)n(CCN3CCN(c4nc5cc(C#N)c(C)cc5[nH]4)CC3)c2c1 was tested. Which MIC [1] did it give?
A: The MIC was over 100 µM.

Q: What about the MIC [2] of the same molecule?
A: The MIC was 1.56 µM (≈ 0.692 µg/mL).

Q: And the MIC [3]?
A: Its MIC is 100 µM (≈ 44.4 µg/mL).

Q: N#Cc1ccc2ccc(=O)n(CCN3CCC(NCc4ccc5c(n4)NC(=O)CO5)CC3)c2c1 was tested. Which MIC [1] did it give?
A: The MIC was 4 µM (≈ 1.83 µg/mL).

Q: What about the MIC [2] of the same molecule?
A: Its MIC is under 0.19 µM.

Q: And the MIC [3]?
A: Its MIC is over 100 µM.

Q: For COc1cnc2ccc(=O)n(CCN3CCC(c4nc5cc(Cl)c(F)cc5[nH]4)CC3)c2c1, which MIC [1] is on record?
A: The MIC was 100 µM (≈ 45.6 µg/mL).

Q: What about the MIC [2] of the same molecule?
A: The MIC was 0.06 µM (≈ 0.0274 µg/mL).

Q: What about the MIC [3] of the same molecule?
A: Its MIC is 25 µM (≈ 11.4 µg/mL).

Q: What does the source list for COc1cnc2ccc(=O)n(CCN3CCC(c4nc5cc(C#N)c(C)cc5[nH]4)CC3)c2c1?
A: MIC [1]: >100 µM; MIC [2]: 0.78 µM (≈ 0.345 µg/mL); MIC [3]: 100 µM (≈ 44.3 µg/mL)

Q: With CO[C@H]1/C=C/O[C@@]2(C)Oc3c(C)c(O)c4c(O)c(c(/C=N/N5CCN(C)CC5)c(O)c4c3C2=O)NC(=O)/C(C)=C\C=C\[C@H](C)[C@H](O)[C@@H](C)[C@@H](O)[C@@H](C)[C@H](OC(C)=O)[C@@H]1C [RIFAMPIN] as the molecule, how does the MIC [1] read?
A: The MIC was 0.008 µM (≈ 0.00658 µg/mL).

Q: What about the MIC [2] of the same molecule?
A: The MIC was 0.008 µM (≈ 0.00658 µg/mL).

Q: For NS(=O)(=O)c1ccc(Oc2cnc3ccc(=O)n(CCN4CCC(c5nc6cc(C(F)(F)F)ccc6[nH]5)CC4)c3c2)cc1, which MIC [1] is on record?
A: The MIC was 25 µM (≈ 15.3 µg/mL).

Q: What about the MIC [2] of the same molecule?
A: The MIC was 0.39 µM (≈ 0.239 µg/mL).

Q: What about the MIC [3] of the same molecule?
A: Its MIC is 12.5 µM (≈ 7.66 µg/mL).

Q: What does the source list for COc1c(N2C[C@@H]3CCCN[C@@H]3C2)c(F)cc2c(=O)c(C(=O)O)cn(C3CC3)c12 [MOXIFLOXACIN]?
A: MIC [1]: 0.25 µM (≈ 0.1 µg/mL); MIC [2]: 4 µM (≈ 1.61 µg/mL); MIC [3]: 2 µM (≈ 0.803 µg/mL)
